Results on 22 molecules are retold here after patent US8455475B2 (Gruenenthal GmbH, priority 2009, dated 2013).

Each structure is given as a SMILES string.

Test [1] has as its target T1, human B1R (bradykinin receptor 1) (Homo sapiens, UniProt P46663).
T1 construct: expressed in transfected cells; host or cells: CHO K1 cells
T1 sequence (P46663 1-353): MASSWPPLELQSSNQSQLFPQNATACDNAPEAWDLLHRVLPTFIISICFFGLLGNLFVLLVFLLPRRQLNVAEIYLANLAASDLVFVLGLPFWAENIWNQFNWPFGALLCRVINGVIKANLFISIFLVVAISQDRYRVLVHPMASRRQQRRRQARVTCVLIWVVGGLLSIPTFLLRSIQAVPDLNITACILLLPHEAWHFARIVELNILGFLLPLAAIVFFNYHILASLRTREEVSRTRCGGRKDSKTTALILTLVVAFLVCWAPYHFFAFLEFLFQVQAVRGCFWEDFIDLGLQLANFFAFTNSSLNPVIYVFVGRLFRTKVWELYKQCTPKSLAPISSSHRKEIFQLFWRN
In words: FLIPR Ca2+ assay (Fluo-4) on CHO K1 cells stably transfected with the human B1R gene (hB1R cells): % inhibition at 10 μM / IC50, agonist Lys-Des-Arg9-bradykinin. The conditions noted are these: CHO-K1, human B1R. Format: cell-based. The method, boiled down:
(§1)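 Peak fluorescence counts read on FLIPR (λex 488, λem 540 nm) after two additions: compound first, then agonist at EC80 after 10–20 min. Human line challenged with Lys-Des-Arg9-bradykinin, rat line with Des-Arg9-bradykinin. Suppression of Ca2+ inflow expressed as % of maximum inhibition.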

The target of test [2] is T2, rat B1R (bradykinin receptor 1) (Rattus norvegicus, UniProt P97583).
T2 construct: expressed in transfected cells; host or cells: CHO K1 cells
T2 sequence (P97583 1-337): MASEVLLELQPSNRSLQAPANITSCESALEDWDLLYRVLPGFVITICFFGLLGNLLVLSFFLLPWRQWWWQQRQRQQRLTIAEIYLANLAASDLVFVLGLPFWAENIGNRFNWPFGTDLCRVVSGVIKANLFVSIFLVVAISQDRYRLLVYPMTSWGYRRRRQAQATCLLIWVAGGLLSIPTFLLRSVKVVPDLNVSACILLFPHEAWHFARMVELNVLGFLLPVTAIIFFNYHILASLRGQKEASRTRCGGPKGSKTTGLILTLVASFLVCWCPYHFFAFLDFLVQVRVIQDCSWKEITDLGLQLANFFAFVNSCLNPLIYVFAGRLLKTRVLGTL
Put plainly: FLIPR Ca2+ assay (Fluo-4) on CHO K1 cells stably transfected with the B1R gene of the rat (rB1R cells): % inhibition at 10 μM / IC50, agonist Des-Arg9-bradykinin. Format: cell-based. The conditions noted are these: CHO-K1, rat B1R. The method in brief: as §1

Broadly, the inhibition is the relative decrease from the control value, in per cent. Take `Cc1ccc(C(=O)NC2CCc3ccc(C(=O)N4CCC5(CC4)CCN(c4ccncc4)CC5)cc32)c(F)c1` (centres unmarked) [IND_CC-305, 2-Fluoro-4-methyl-N-[6-(9-pyridin-4-yl-3,9-diazaspiro[5.5]undecane-3-carbonyl)-2,3-dihydro-1H-inden-1-yl]-benzamide]: the inhibition at 10 µM in test [1] came out at 67%; in test [2], 104%.
For `Cc1ccc(F)c(C(=O)NC2CC(C)(C)c3ccc(C(=O)N4CCC5(CC4)CCN(c4ccncc4)CC5)cc32)c1Cl` (centres unmarked) [IND_CC-248, 2-Chloro-N-[3,3-dimethyl-6-(3-pyridin-4-yl-3,9-diazaspiro[5.5]undecane-9-carbonyl)-1,2-dihydro-inden-1-yl]-6-fluoro-3-methyl-benzamide], in that order: 90% and 102%.
Taken in the same sequence, the figures for `CC1(C)CC(NC(=O)c2cc(Cl)ccc2Cl)c2cc(C(=O)N3CCC4(CC3)CCN(c3ccncc3)CC4)ccc21` (centres unmarked) [IND_CC-244, 2,5-Dichloro-N-[3,3-dimethyl-6-(3-pyridin-4-yl-3,9-diazaspiro[5.5]undecane-9-carbonyl)-1,2-dihydro-inden-1-yl]-benzamide] were 99% and 103%.
For `CN(C(=O)c1ccccc1Cl)C1CCc2ccc(C(=O)N3CCC4(CCN(c5ccncc5)CC4)C3)cc21` (centres unmarked) [Ind_CC-111, 2-chloro-N-methyl-N-[6-(8-pyridin-4-yl-2,8-diazaspiro[4.5]decane-2-carbonyl)-2,3-dihydro-1H-inden-1-yl]-benzamide], in that order: 100% and 101%.
In the case of `O=C(NC1CCc2ccc(C(=O)N3CCC4(CC3)CCN(c3ccc(C(F)(F)F)cc3)CC4)cc21)c1cc(Cl)ccc1Cl` (centres unmarked) [IND_CC-209, 2,5-Dichloro-N-[6-[9-[4-(trifluoromethyl)-phenyl]-3,9-diazaspiro[5.5]undecane-3-carbonyl]-2,3-dihydro-1H-inden-1-yl]-benzamide], the values for the inhibition at 10 µM in test [1] and in test [2] were 20% and 102%, respectively.
For `O=C(NC1CCCCc2ccc(C(=O)N3CCC4(CC3)CCN(c3cccnc3)CC4)cc21)c1ccccc1Cl` (centres unmarked) [Ind_CC-121, 2-chloro-N-[3-(9-pyridin-3-yl-3,9-diazaspiro[5.5]undecane-3-carbonyl)-6,7,8,9-tetrahydro-5H-benzocyclohepten-5-yl]-benzamide], in that order: 46% and 103%.
For `CC1(C)Cc2ccc(C(=O)N3CCC4(CC3)CCN(c3ccncc3)CC4)cc2C1NC(=O)c1ccccc1C(F)(F)F` (centres unmarked) [Ind_CC-064, N-[2,2-dimethyl-6-(9-pyridin-4-yl-3,9-diazaspiro[5.5]undecane-3-carbonyl)-1,3-dihydro-inden-1-yl]-2-(trifluoromethyl)-benzamide], in that order: 95% and 101%.
Taken in the same sequence, the figures for `Cc1ccc(F)c(C(=O)NC2CCc3ccc(C(=O)N4CCC5(CCN(c6ccncc6)CC5)C4)cc32)c1Cl` (centres unmarked) [IND_CC-249, 2-Chloro-6-fluoro-3-methyl-N-[6-(8-pyridin-4-yl-2,8-diazaspiro[4.5]decane-2-carbonyl)-2,3-dihydro-1H-inden-1-yl]-benzamide] were 99% and 99%.
Consider `O=C(c1ccc2c(c1)C(NS(=O)(=O)c1ccccc1Cl)CC2)N1CCC2(CC1)CCN(c1ccncc1)CC2` (centres unmarked) [Ind_CC-010, 2-chloro-N-[6-(9-pyridin-4-yl-3,9-diazaspiro[5.5]undecane-3-carbonyl)-2,3-dihydro-1H-inden-1-yl]-benzenesulfonic acid amide], for which the inhibition at 10 µM was 97% in test [1] and 100% in test [2].
Taken in the same sequence, the figures for `O=C(N[C@@H]1CCOc2ccc(C(=O)N3CCC4(CC3)CCN(c3ccncc3)C4)cc21)c1ccccc1Cl` [Example H-57, 2-Chloro-N-[(4R)-6-(3-pyridin-4-yl-3,8-diazaspiro[4.5]decane-8-carbonyl)-3,4-dihydro-2H-chromen-4-yl]-benzamide] were 99% and 105%.
Taken in the same sequence, the figures for `O=C(N[C@H]1CCc2cc(C(=O)N3CCC4(CCN(c5ccncc5)CC4)C3)ccc21)c1ccccc1Cl` [Example H-155] were 87% and 100%.
For `O=C(NC1CCc2ccc(C(=O)N3CCC4(CCN(Cc5ccc(F)c(F)c5)CC4)C3)cc21)c1ccccc1Cl` (centres unmarked) [IND_CC-542, 2-Chloro-N-[6-[8-[(3,4-difluoro-phenyl)-methyl]-2,8-diazaspiro[4.5]decane-2-carbonyl]-2,3-dihydro-1H-inden-1-yl]-benzamide], in that order: 27% and 104%.
`O=C(N[C@@H]1CCc2ccc(C(=O)N3CCC4(CCN(c5ccncc5)CC4)C3)cc21)c1ccccc1Cl` [Example H-21, 2-chloro-N-[(1R)-6-(8-pyridin-4-yl-3,8-diazaspiro[4.5]decane-3-carbonyl)-2,3-dihydro-1H-inden-1-yl]-benzamide]: the inhibition at 10 µM in test [1] worked out at 100%; in test [2] it was 105%.
Turning to `O=C(Cc1ccccc1Cl)NC1CCc2ccc(C(=O)N3CCC4(CC3)CCN(c3ccncc3)C4)cc21` (centres unmarked) [Ind_CC-045, 2-(2-chlorophenyl)-N-[6-(2-pyridin-4-yl-2,8-diazaspiro[4.5]decane-8-carbonyl)-2,3-dihydro-1H-inden-1-yl]-acetamide], the inhibition at 10 µM in test [1] was found to be 100%; in test [2], 101%.
Consider `CC1(C)CC(NC(=O)c2ccccn2)c2cc(C(=O)N3CCC4(CC3)CCN(c3ccncc3)CC4)ccc21` (centres unmarked) [Ind_CC-052, N-[3,3-dimethyl-6-(9-pyridin-4-yl-3,9-diazaspiro[5.5]undecane-3-carbonyl)-1,2-dihydro-inden-1-yl]-pyridine-2-carboxylic acid amide], for which the inhibition at 10 µM in test [1] is 62%; in test [2], 81%.
Regarding `CC1(C)CC(NC(=O)c2cccc(C(F)(F)F)c2Cl)c2cc(C(=O)N3CCC4(CC3)CCN(c3ccncc3)CC4)ccc21` (centres unmarked) [IND_CC-254, 2-Chloro-N-[3,3-dimethyl-6-(3-pyridin-4-yl-3,9-diazaspiro[5.5]undecane-9-carbonyl)-1,2-dihydro-inden-1-yl]-3-(trifluoromethyl)-benzamide], the inhibition at 10 µM in test [1] worked out at 97%; in test [2] it was 105%.
Taken in the same sequence, the figures for `O=C(N[C@@H]1CCc2cc(F)c(C(=O)N3CCC4(CC3)CCN(c3ccncc3)CC4)cc21)c1ccccc1Cl` [Example H-90, 2-Chloro-N-[(1R)-5-fluoro-6-(9-pyridin-4-yl-3,9-diazaspiro[5.5]undecane-3-carbonyl)-2,3-dihydro-1H-inden-1-yl]-benzamide] were 100% and 103%.
For `O=C(NC1CCc2ccc(C(=O)N3CCC4(CC3)CCN(c3cccnc3)CC4)cc21)c1ccccc1Cl` (centres unmarked) [Ind_CC-096, 2-chloro-N-[6-(9-pyridin-3-yl-3,9-diazaspiro[5.5]undecane-3-carbonyl)-2,3-dihydro-1H-inden-1-yl]-benzamide], in that order: 91% and 101%.
Taken in the same sequence, the figures for `CN(C(=O)c1cc(Cl)ccc1Cl)C1CCc2ccc(C(=O)N3CCC4(CC3)CCN(c3ccncc3)CC4)cc21` (centres unmarked) [IND_CC-200, 2,5-Dichloro-N-methyl-N-[6-(9-pyridin-4-yl-3,9-diazaspiro[5.5]undecane-3-carbonyl)-2,3-dihydro-1H-inden-1-yl]-benzamide] were 100% and 102%.
For `CN(C(=O)c1ccccc1Cl)C1CCc2ccc(C(=O)N3CCC4(CC3)CCN(c3cccnc3)CC4)cc21` (centres unmarked) [Ind_CC-107, 2-chloro-N-methyl-N-[6-(9-pyridin-3-yl-3,9-diazaspiro[5.5]undecane-3-carbonyl)-2,3-dihydro-1H-inden-1-yl]-benzamide], the inhibition at 10 µM in test [1] was 78%; in test [2], 100%.
Taken in the same sequence, the figures for `Cc1nc(CN2CCC3(CC2)CCN(C(=O)c2ccc4c(c2)C(NC(=O)c2ccccc2Cl)CC4)CC3)c[nH]1` (centres unmarked) [IND_CC-528, 2-Chloro-N-[6-[9-[(2-methyl-1H-imidazol-4-yl)-methyl]-3,9-diazaspiro[5.5]undecane-3-carbonyl]-2,3-dihydro-1H-inden-1-yl]-benzamide] were 24% and 102%.
For `O=C(c1ccc2c(c1)[C@H](NS(=O)(=O)c1cc(Cl)ccc1Cl)CC2)N1CCC2(CCN(c3ccncc3)CC2)C1` [Example H-142, 2,5-Dichloro-N-[(1R)-6-(8-pyridin-4-yl-3,8-diazaspiro[4.5]decane-3-carbonyl)-2,3-dihydro-1H-inden-1-yl]-benzenesulfonic acid amide], in that order: 98% and 103%.
